Values quoted from earlier work, collected in US5032586A, “7-keto or hydroxy 3,5-diene steroids as inhibitors of steroid 5-alpha reductase” (SmithKline Beecham Corporation, priority 1989, dated 1991).

Tested on: 5-α-Reductase
Details: for Type of inhibition (Reversible/Irreversible): Table 1, printed with Ki; for Ki: literature values, Table 1

Row | SMILES | Type of inhibition (Reversible/Irreversible) | Ki | Inhibition of steroid 5-α-reductase, in words (literature description)
1 | CCN(CC)C(=O)[C@H]1CC[C@H]2[C@@H]3CC[C@H]4N(C)C(=O)CC[C@]4(C)[C@H]3CC[C@]12C [(4)] | Reversible | 5 nM | 
2 | C=C1C[C@@H]2[C@H](CC[C@@]3(C)[C@H]2CC[C@]3(OC(C)=O)C(C)=O)[C@@]2(C)CCC(=O)C=C12 [(5)] | Irreversible | 1250 nM | timedependent inactivator of steroid 5-α-reductase
